We go through nine compounds from ChEMBL document CHEMBL1144215, “N-Propylnoraporphin-11-O-yl carboxylic esters as potent dopamine D(2) and serotonin 5-HT(1A) receptor dual ligands” (Bioorg Med Chem, 2008).

Bounds are passed on as bounds.

In test [1] the target is T1, D(2) dopamine receptor (Homo sapiens, UniProt P14416). Nature of the test: Displacement of […] from human dopamine D2 receptor expressed in HEK293 cells. Type of test: cell-based.
Test [2] has as its target 5-hydroxytryptamine receptor 2A (Homo sapiens, UniProt P28223). Nature of the test: Displacement of [3H]Ketanserin from human 5HT2A receptor expressed in HEK293 cells. In general terms: Loss of bound radioactivity is the signal in a displacement assay; it reports binding, not function.
Test [3] has as its target T1, D(2) dopamine receptor. Nature of the test: Displacement of [3H]Spiperone from human dopamine D2 receptor expressed in HEK293 cells.
Test [4] has as its target Dopamine D1 receptor. Nature of the test: Displacement of [3H]SCH23390 from rat dopamine D1 receptor expressed in HEK293 cells.

Chain of 5-hydroxytryptamine receptor 2A (P28223 whole entry): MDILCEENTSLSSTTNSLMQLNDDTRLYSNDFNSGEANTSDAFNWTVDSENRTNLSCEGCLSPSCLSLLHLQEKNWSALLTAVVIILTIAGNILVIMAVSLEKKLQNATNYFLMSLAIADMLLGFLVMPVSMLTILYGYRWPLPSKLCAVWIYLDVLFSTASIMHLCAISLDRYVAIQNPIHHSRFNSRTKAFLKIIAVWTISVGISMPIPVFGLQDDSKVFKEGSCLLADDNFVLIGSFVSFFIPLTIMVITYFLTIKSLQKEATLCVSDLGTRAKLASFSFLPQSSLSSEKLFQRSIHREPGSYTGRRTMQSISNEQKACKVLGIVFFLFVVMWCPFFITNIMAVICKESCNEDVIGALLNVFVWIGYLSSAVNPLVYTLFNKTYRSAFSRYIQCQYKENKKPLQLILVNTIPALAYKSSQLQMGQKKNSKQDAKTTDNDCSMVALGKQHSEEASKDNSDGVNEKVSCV
T1 sequence (P14416 whole entry): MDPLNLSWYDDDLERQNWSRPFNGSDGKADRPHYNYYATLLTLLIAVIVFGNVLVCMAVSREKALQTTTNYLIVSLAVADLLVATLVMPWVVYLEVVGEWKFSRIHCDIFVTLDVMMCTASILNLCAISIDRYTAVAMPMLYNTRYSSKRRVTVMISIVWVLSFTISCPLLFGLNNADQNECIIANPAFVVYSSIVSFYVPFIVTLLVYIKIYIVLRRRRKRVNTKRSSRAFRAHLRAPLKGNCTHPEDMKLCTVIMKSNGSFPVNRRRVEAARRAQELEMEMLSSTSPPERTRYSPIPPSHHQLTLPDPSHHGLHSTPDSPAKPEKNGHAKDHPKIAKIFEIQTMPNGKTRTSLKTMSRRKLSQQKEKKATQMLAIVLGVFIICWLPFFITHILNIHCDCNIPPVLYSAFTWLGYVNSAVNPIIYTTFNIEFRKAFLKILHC

Broadly, the Ki is a measure of affinity in units of concentration, obtained from inhibition or displacement. For the compound `CCCN1CCc2cccc3c2[C@H]1Cc1cccc(OC(=O)CCCC(=O)Oc2cccc4c2-c2cccc5c2[C@@H](C4)N(CCC)CC5)c1-3`, in test [1], the inhibition constant (Ki) is over 10000 nM.
In the case of `CCCC(=O)Oc1cccc2c1-c1cccc3c1[C@@H](C2)N(CCC)CC3`, the Ki in test [2] is 56 nM; in test [3], over 10000 nM; in test [4] it was over 10000 nM.
Regarding `CCCN1CCc2cccc3c2[C@H]1Cc1cccc(OC(=O)CNC(=O)OCc2ccccc2)c1-3`, the Ki in test [2], in test [3] and in test [4] was over 10000 nM each time.
As for `CCCCC(=O)Oc1cccc2c1-c1cccc3c1[C@@H](C2)N(CCC)CC3`, the Ki in test [2] was 92 nM; in test [3] it was over 10000 nM.
Consider `CCCN1CCc2cccc3c2[C@H]1Cc1cccc(OC(=O)CC)c1-3`, for which, in test [2], the Ki was 109 nM.
In test [2], `CCCCCCC(=O)Oc1cccc2c1-c1cccc3c1[C@@H](C2)N(CCC)CC3` displayed an inhibitory constant (Ki) of 95 nM.
The same measure, in the same setting: in the case of `CCCN1CCc2cccc3c2[C@H]1Cc1cccc(OC(C)=O)c1-3` it was 72 nM.
Regarding `CCCCCC(=O)Oc1cccc2c1-c1cccc3c1[C@@H](C2)N(CCC)CC3`, the Ki is 109 nM in test [2], over 10000 nM in test [3] and over 10000 nM in test [4].
Regarding `CCCN1CCc2cccc3c2[C@H]1Cc1cccc(O)c1-3`, the Ki in test [2] worked out at 114 nM.
